Converted amounts (≈) assume the structure as drawn. Read-outs that look alike come from different tables or passages of the source.
Key:
Type in all cases: cell-based
S. epidermidis = assay: microbe, parasite or virus in culture; settings: for MIC: Staphylococcus epidermidis
From the text: (§1) We determined the minimal inhibitory concentrations (MIC) of the teicoplanin conjugates for a large panel of Gram-positive bacterial strains, using vancomycin, unmodified teicoplanin, dalbavancin and oritavancin as reference compounds. […] The bacterial strains (see Suppl. Table S5 for all details) were selected to achieve maximum diversity of multidrug-resistance and include strains with known mechanisms of resistance to glycopeptides in clinical use. The S. epidermidis and S. haemolyticus strains resistant to dalbavancin and oritavancin were obtained in vitro from clinical isolates sensitive to the glycopeptide antibiotics.

E. faecium = assay: microbe, parasite or virus in culture; settings: for MIC: Enterococcus faecium
From the text: as §1

S. aureus = assay: MIC, broth microdilution; settings: for MIC: Staphylococcus aureus
From the text: as §1

S.pyogenes = assay: MIC, broth microdilution; settings: for MIC: Streptococcus pyogenes
From the text: as §1

S. haemolyticus = assay: MIC, broth microdilution; settings: for MIC: Staphylococcus haemolyticus
From the text: as §1

E. faecalis = assay: MIC, broth microdilution; settings: for MIC: Enterococcus faecalis
From the text: as §1

`CN[C@H]1C(=O)N[C@@H]2Cc3ccc(cc3)Oc3cc4cc(c3O[C@@H]3O[C@H](C(=O)O)[C@@H](O)[C@H](O)[C@H]3NC(=O)CCCCCCCCC(C)C)Oc3ccc(cc3Cl)[C@@H](O)[C@@H]3NC(=O)[C@H](NC(=O)[C@@H]4NC(=O)[C@@H](NC2=O)c2cc(cc(O)c2Cl)Oc2cc1ccc2O)c1ccc(O)c(c1)-c1c(O[C@H]2O[C@H](CO)[C@@H](O)[C@H](O)[C@@H]2O)cc(O)cc1[C@@H](C(=O)NCCCN(C)C)NC3=O` [DALB, dalbavancin, reference compound] was tested, and the “Average MIC value” (S. epidermidis; S. epidermidis mecA, 6 strains) was 1.77 µg/mL, the MIC value (S. epidermidis; S.epidermidis ORI_R1, mecA) was 4 µg/mL (≈ 2.2 µM) and the MIC value (S. epidermidis; S.epidermidis ORI_R2, mecA) was 4 µg/mL (≈ 2.2 µM). The MIC value (S. epidermidis; S.epidermidis ORI_R3, mecA) was 2 µg/mL (≈ 1.1 µM), the MIC value (S. epidermidis; S.epidermidis ORI_R4, mecA) was 0,25 µg/ml and the MIC value (S. epidermidis; S.epidermidis TEI_R1, mecA) was 0,25 µg/ml. For the same compound, the MIC value (S. epidermidis; S.epidermidis TEI_R2, mecA) was 0,125 µg/ml, the “Average MIC value” (E. faecium; E. faecium VAN^R,TEI^R/VanA, 8 strains) was 48 µg/mL and the “Average MIC value” (E. faecium; E. faecium VAN^S, TEI^S, 1 strain) was 0.25 µg/mL. It also gave an MIC value (E. faecium; E.faecium E335, VAN,TEI,LNZ/VanA) of 64 µg/mL (≈ 35.2 µM), an MIC value (E. faecium; E.faecium E355, VAN,TEI,LNZ/VanA) of 32 µg/mL (≈ 17.6 µM) and an MIC value (E. faecium; E.faecium E832, VAN,TEI,LNZ/VanA) of 64 µg/mL (≈ 35.2 µM). The MIC value (E. faecium; E.faecium E854, VAN,TEI,LNZ/VanA) was 32 µg/mL (≈ 17.6 µM), the MIC value (E. faecium; E.faecium E859, VAN,TEI,LNZ/VanA) was 32 µg/mL (≈ 17.6 µM) and the MIC value (E. faecium; E.faecium E1114, VAN,TEI,LNZ/VanA) was 64 µg/mL (≈ 35.2 µM). For the same compound, the MIC value (E. faecium; E.faecium E1131, VAN,TEI,LNZ/VanA) was 64 µg/mL (≈ 35.2 µM), the MIC value (E. faecium; E.faecium E1132, VAN,TEI,LNZ/VanA) was 32 µg/mL (≈ 17.6 µM) and the MIC value (E. faecium; E.faecium TX0016) was 0,25 µg/ml. For the same compound, the MIC value (S. aureus; S. aureus 73OL, MRSA) was 0,125 µg/ml, the MIC value (S. aureus; S. aureus 214OL, MRSA) was 0,125 µg/ml and the MIC value (S. aureus; S. aureus 1041OL, MRSA) was 0,03125 µg/ml. The MIC value (S. aureus; S. aureus A6918, MRSA) was 0,125 µg/ml, the MIC value (S. aureus; S. aureus A6919, MRSA) was 0,0625 µg/ml and the MIC value (S. aureus; S. aureus ATCC29213, MSSA) was 0,125 µg/ml. For the same compound, the “Average MIC value” (S. aureus; S. aureus CA-MRSA, 1 strain) was 0.0625 µg/mL, the “Average MIC value” (S. aureus; S. aureus MRSA, 7 strains) was 0.1 µg/mL and the MIC value (S. aureus; S. aureus MSSA476, MSSA) was 0,125 µg/ml. For the same compound, the “Average MIC value” (S. aureus; S. aureus MSSA, 4 strains) was 0.125 µg/mL, the MIC value (S. aureus; S. aureus Mu50, MRSA) was 0,125 µg/ml and the MIC value (S. aureus; S. aureus N315, MRSA) was 0,125 µg/ml. For the same compound, the MIC value (S. aureus; S. aureus Newman, MSSA) was 0,125 µg/ml, the MIC value (S. aureus; S. aureus SA564, MSSA) was 0,125 µg/ml and the MIC value (S. aureus; S. aureus USA300, CA-MRSA) was 0,0625 µg/ml. For the same compound, the MIC value (S.pyogenes; S.pyogenes H232) was 0,0625 µg/ml, the MIC value (S.pyogenes; S.pyogenes H550) was 0,25 µg/ml and the MIC value (S.pyogenes; S.pyogenes H578) was 0,25 µg/ml. For the same compound, the “Average MIC value” (S. haemolyticus; S. haemolyticus mecA, 6 strains) was 3.83 µg/mL, the MIC value (S. haemolyticus; S.haemolyticus DALB_R1, mecA) was 2 µg/mL (≈ 1.1 µM) and the MIC value (S. haemolyticus; S.haemolyticus DALB_R2, mecA) was 8 µg/mL (≈ 4.4 µM). It also gave an MIC value (S. haemolyticus; S.haemolyticus DALB_R3, mecA) of 2 µg/mL (≈ 1.1 µM), an MIC value (S. haemolyticus; S.haemolyticus DALB_R4, mecA) of 2 µg/mL (≈ 1.1 µM) and an MIC value (S. haemolyticus; S.haemolyticus DALB_R5, mecA) of 1 µg/mL (≈ 0.55 µM). For the same compound, the MIC value (S. haemolyticus; S.haemolyticus ORI_R1, mecA) was 8 µg/mL (≈ 4.4 µM), the “Average MIC value” (E. faecalis; E. faecalis VAN^R,TEI^R/VanA, 1 strain) was 64 µg/mL and the “Average MIC value” (E. faecalis; E. faecalis VAN^S, TEI^S, 2 strains) was 0.25 µg/mL. The MIC value (E. faecalis; E.faecalis JH2-2) was 0,25 µg/ml, the MIC value (E. faecalis; E.faecalis OG1RF) was 0,25 µg/ml and the MIC value (E. faecalis; E.faecalis V583, VAN,TEI/VanA) was 64 µg/mL (≈ 35.2 µM).

For `CN[C@H](CC(C)C)C(=O)N[C@H]1C(=O)N[C@@H](CC(N)=O)C(=O)N[C@H]2C(=O)N[C@H]3C(=O)N[C@H](C(=O)N[C@H](C(=O)O)c4cc(O)cc(O)c4-c4cc3ccc4O)[C@H](O)c3ccc(c(Cl)c3)Oc3cc2cc(c3O[C@@H]2O[C@H](CO)[C@@H](O)[C@H](O)[C@H]2O[C@H]2C[C@](C)(N)[C@H](O)[C@H](C)O2)Oc2ccc(cc2Cl)[C@H]1O` [VAN, vancomycin, reference compound], the MIC (S. epidermidis; read-out: Average MIC value, S. epidermidis mecA, 6 strains) was 6.67 µg/mL (≈ 4.6 µM), the MIC (S. epidermidis; read-out: MIC value, S.epidermidis ORI_R1, mecA) was 8 µg/mL (≈ 5.52 µM) and the MIC (S. epidermidis; read-out: MIC value, S.epidermidis ORI_R2, mecA) was 8 µg/mL (≈ 5.52 µM). The MIC (S. epidermidis; read-out: MIC value, S.epidermidis ORI_R3, mecA) was 8 µg/mL (≈ 5.52 µM), the MIC (S. epidermidis; read-out: MIC value, S.epidermidis ORI_R4, mecA) was 4 µg/mL (≈ 2.76 µM) and the MIC (S. epidermidis; read-out: MIC value, S.epidermidis TEI_R1, mecA) was 4 µg/mL (≈ 2.76 µM). For the same compound, the MIC (S. epidermidis; read-out: MIC value, S.epidermidis TEI_R2, mecA) was 8 µg/mL (≈ 5.52 µM), the MIC (E. faecium; read-out: Average MIC value, E. faecium VAN^R,TEI^R/VanA, 8 strains) was > 64 µg/mL and the MIC (E. faecium; read-out: Average MIC value, E. faecium VAN^S, TEI^S, 1 strain) was 0.25 µg/mL (≈ 0.173 µM). The MIC (E. faecium; read-out: MIC value, E.faecium E335, VAN,TEI,LNZ/VanA) was > 64 µg/mL, the MIC (E. faecium; read-out: MIC value, E.faecium E355, VAN,TEI,LNZ/VanA) was > 64 µg/mL and the MIC (E. faecium; read-out: MIC value, E.faecium E832, VAN,TEI,LNZ/VanA) was > 64 µg/mL. For the same compound, the MIC (E. faecium; read-out: MIC value, E.faecium E854, VAN,TEI,LNZ/VanA) was > 64 µg/mL, the MIC (E. faecium; read-out: MIC value, E.faecium E859, VAN,TEI,LNZ/VanA) was > 64 µg/mL and the MIC (E. faecium; read-out: MIC value, E.faecium E1114, VAN,TEI,LNZ/VanA) was > 64 µg/mL. For the same compound, the MIC (E. faecium; read-out: MIC value, E.faecium E1131, VAN,TEI,LNZ/VanA) was > 64 µg/mL, the MIC (E. faecium; read-out: MIC value, E.faecium E1132, VAN,TEI,LNZ/VanA) was > 64 µg/mL and the MIC (E. faecium; read-out: MIC value, E.faecium TX0016) was 0.25 µg/mL (≈ 0.173 µM). It also gave an MIC (S. aureus; ATCC 29213 / MSSA, read-out: MIC value, S. aureus ATCC29213, MSSA) of 1 µg/mL (≈ 0.69 µM), an MIC (S. aureus; MRSA / USA300, read-out: MIC value, S. aureus USA300, CA-MRSA) of 0.25 µg/mL (≈ 0.173 µM) and an MIC (S. aureus; MRSA, read-out: Average MIC value, S. aureus CA-MRSA, 1 strain) of 0.25 µg/mL (≈ 0.173 µM). For the same compound, the MIC (S. aureus; MRSA, read-out: Average MIC value, S. aureus MRSA, 7 strains) was 1.25 µg/mL (≈ 0.863 µM), the MIC (S. aureus; MRSA, read-out: MIC value, S. aureus 73OL, MRSA) was 1 µg/mL (≈ 0.69 µM) and the MIC (S. aureus; MRSA, read-out: MIC value, S. aureus 214OL, MRSA) was 1 µg/mL (≈ 0.69 µM). The MIC (S. aureus; MRSA, read-out: MIC value, S. aureus 1041OL, MRSA) was 1 µg/mL (≈ 0.69 µM), the MIC (S. aureus; MRSA, read-out: MIC value, S. aureus A6918, MRSA) was 1 µg/mL (≈ 0.69 µM) and the MIC (S. aureus; MRSA, read-out: MIC value, S. aureus A6919, MRSA) was 0.25 µg/mL (≈ 0.173 µM). The MIC (S. aureus; MRSA, read-out: MIC value, S. aureus Mu50, MRSA) was 4 µg/mL (≈ 2.76 µM), the MIC (S. aureus; MRSA, read-out: MIC value, S. aureus N315, MRSA) was 0.5 µg/mL (≈ 0.345 µM) and the MIC (S. aureus; MSSA / NEWMAN, read-out: MIC value, S. aureus Newman, MSSA) was 0.5 µg/mL (≈ 0.345 µM). The MIC (S. aureus; MSSA, read-out: Average MIC value, S. aureus MSSA, 4 strains) was 0.625 µg/mL (≈ 0.431 µM), the MIC (S. aureus; MSSA, read-out: MIC value, S. aureus MSSA476, MSSA) was 0.5 µg/mL (≈ 0.345 µM) and the MIC (S. aureus; MSSA, read-out: MIC value, S. aureus SA564, MSSA) was 0.5 µg/mL (≈ 0.345 µM). It also gave an MIC (S.pyogenes; read-out: MIC value, S.pyogenes H232) of 0.0625 µg/mL (≈ 0.0431 µM), an MIC (S.pyogenes; read-out: MIC value, S.pyogenes H550) of 0.0625 µg/mL (≈ 0.0431 µM) and an MIC (S.pyogenes; read-out: MIC value, S.pyogenes H578) of 0.0625 µg/mL (≈ 0.0431 µM). It also gave an MIC (S. haemolyticus; S. haemolyticus mecA, 6 strains, read-out: Average MIC value) of 28 µg/mL (≈ 19.3 µM), an MIC (S. haemolyticus; S.haemolyticus DALB_R1, mecA, read-out: MIC value) of 32 µg/mL (≈ 22.1 µM) and an MIC (S. haemolyticus; S.haemolyticus DALB_R2, mecA, read-out: MIC value) of 64 µg/mL (≈ 44.2 µM). For the same compound, the MIC (S. haemolyticus; S.haemolyticus DALB_R3, mecA, read-out: MIC value) was 8 µg/mL (≈ 5.52 µM), the MIC (S. haemolyticus; S.haemolyticus DALB_R4, mecA, read-out: MIC value) was 32 µg/mL (≈ 22.1 µM) and the MIC (S. haemolyticus; S.haemolyticus DALB_R5, mecA, read-out: MIC value) was 16 µg/mL (≈ 11 µM). The MIC (S. haemolyticus; S.haemolyticus ORI_R1, mecA, read-out: MIC value) was 16 µg/mL (≈ 11 µM), the MIC (E. faecalis; read-out: Average MIC value, E. faecalis VAN^R,TEI^R/VanA, 1 strain) was > 64 µg/mL and the MIC (E. faecalis; read-out: Average MIC value, E. faecalis VAN^S, TEI^S, 2 strains) was 0.25 µg/mL (≈ 0.173 µM). For the same compound, the MIC (E. faecalis; read-out: MIC value, E.faecalis JH2-2) was 0.25 µg/mL (≈ 0.173 µM), the MIC (E. faecalis; read-out: MIC value, E.faecalis OG1RF) was 0.25 µg/mL (≈ 0.173 µM) and the MIC (E. faecalis; read-out: MIC value, E.faecalis V583, VAN,TEI/VanA) was > 64 µg/mL.

Reference: paper PMC9511441, “Semisynthetic teicoplanin derivatives with dual antimicrobial activity against SARS-CoV-2 and multiresistant bacteria” (Scientific Reports, 2022)
